The record followed here is patent publication US9408871B2, “Methods for inhibiting complement activation and uses thereof” (THE UNIVERSITY OF BRITISH COLUMBIA, priority 2013, dated 2016).

In test [1] the test system is TP complement components (C5b,6, C7, C8, C9). The test is described as follows: terminal pathway hemolytic assay using purified complement components. The test is classed as cell-based, human. To be noted: cRBC, purified C5b,6, C7, C8, C9. Here is the method: For serum-based terminal pathway (TP) hemolytic assays, components were diluted in GVB containing 10 mM EDTA (GVB-E), the latter added to prevent upstream complement activation and generation of endogenous C5b,6. 2% NHS was used as the source of C7, C8, and C9, and hemolysis of chicken erythrocytes (cRBC) (3.3×10^8 cells/mL) was initiated by addition of exogenous purified C5b,6, the concentration of which was determined from pilot studies to yield ˜70-80% lysis at 30 min. No C5b,6 activity was detected in the NHS prior to initiating the reaction. For some experiments, instead of NHS, purified terminal pathway complement components were used in the TP assays. In these assays, in a final volume of 300 uL GVB, lysis was achieved by the sequential addition of the following components: cRBC (3.3×10^8 cells/mL), C5b,6 (20 μM), C7 (15 nM), C8 (10 nM), and C9 (25 nM). The unlysed cell pellet was removed by centrifugation and lysis was measured immediately after the 30-minute reaction. […]
A standard curve for the terminal pathway assay using purified complement components (FIG. 3) was generated using C7 (15 nM), C8 (10 nM), and C9 (25 nM) in excess, and hemolysis of chicken erythrocytes after 30 min at 37° C. was determined as dependent on the concentration of purified C5b,6. […]

Test [2] relates to terminal pathway (TP) of complement. The test is described as follows: serum-based terminal pathway (TP) hemolytic assay (2% NHS, C5b,6, chicken erythrocytes). It counts as cell-based, human. The text has this: Erythrocyte lysis assays were used to measure complement-mediated hemolytic activity. Erythrocyte (RBC) lysis assays as previously described^18,37 were used to measure complement activity. For alternative pathway assays and for total hemolytic activity assays, unsensitized rabbit erythrocytes were used. Chicken erythrocytes were used for the terminal pathway assays.
Erythrocytes were washed three times in GVB with the reaction buffers as indicated, and counted using the Advia 120 Hematology System from Siemens (Siemens, Erlangen, Germany). Reactions in 300 μL were allowed to proceed for 30 min at 37° C., after which unlysed cells were pelleted by centrifugation at 600×g. Erythrocyte lysis, reflected by the released hemoglobin in the supernatant, was quantified by measuring the absorbance at 405 nm using the Mithras LB 940 microplate reader from Berthold Technologies (Bad Wildbad, Germany). Percent lysis was determined relative to the control of 100% lysis with H2O. For total hemolytic and terminal pathway (TP) assays, the concentrations of NHS and C5b,6 to initiate complement activation were established from pilot studies to obtain ˜70-80% erythrocyte lysis at 30 min.
For serum-based terminal pathway (TP) hemolytic assays, components were diluted in GVB containing 10 mM EDTA (GVB-E), the latter added to prevent upstream complement activation and generation of endogenous C5b,6. 2% NHS was used as the source of C7, C8, and C9, and hemolysis of chicken erythrocytes (cRBC) (3.3×10^8 cells/mL) was initiated by addition of exogenous purified C5b,6, the concentration of which was determined from pilot studies to yield ˜70-80% lysis at 30 min. No C5b,6 activity was detected in the NHS prior to initiating the reaction. For some experiments, instead of NHS, purified terminal pathway complement components were used in the TP assays. In these assays, in a final volume of 300 uL GVB, lysis was achieved by the sequential addition of the following components: cRBC (3.3×10^8 cells/mL), C5b,6 (20 μM), C7 (15 nM), C8 (10 nM), and C9 (25 nM). The unlysed cell pellet was removed by centrifugation and lysis was measured immediately after the 30-minute reaction. A standard curve for the terminal pathway assay using serum as the source of complement (FIG. 2) was generated using a fixed serum concentration at 2%, and increasing concentrations of purified C5b,6 dose-dependently lysed chicken erythrocytes after 30 min at 37° C. […] of purified C5b,6 was therefore used to fix baseline lysis at ˜80% to allow assessment of the inhibitory effects of polyphosphate in serum.
TP activity in NHS(2%), measured by lysis of cRBC, was initiated by adding a limiting amount of exogenous purified C5b,6 (250 pM) to achieve 70-80% lysis after 30 min. A molar excess of EDTA was used to prevent upstream activation of complement and generation of endogenous C5b,6. In the absence of C5b,6, there was no detectable complement-mediated cRBC lysis. P1 at concentrations ranging from 0.1 to 1000 μM, had no effect on complement-mediated hemolysis in NHS via the TP (FIG. 5A). By contrast, polyphosphate>1000 inhibited the TP in serum in a concentration-dependent manner, with an IC50 of ˜10 μM polyphosphate>1000 (dotted lines) (calculated based on monomeric phosphate).

Take `O=P(O)(O)O` [P1, Orthophosphate]: the “effect on erythrocyte lysis, purified TP components” value in test [1] is on record as “had no effect”. Moreover, in test [2] (100 μM (based on the monomeric form)), the “effect on TP hemolytic activity at equivalent concentration” value is “had no effect”. Also, the “effect on complement-mediated hemolysis in NHS via the TP” value in test [2] (0.1 to 1000 μM, 2% NHS, 250 pM C5b,6, cRBC) is listed as “had no effect”. Also, in test [2] (up to 2 mM P1 with 200 μM polyphosphate>1000), the “effect of co-incubated P1 on suppressive properties of polyphosphate>1000” value is “had no effect on the suppressive properties”.
